Reference: US5844001A, “Combination platinum chemotherapeutic/antiestrogen therapy for human cancers” (Research Development Foundation, priority 1994, dated 1998)
Where two headings read alike, the source gives them in different places.

What was measured:
[1] = tested on: UM-SCC-10B head and neck carcinoma cells; assay: Development of cisplatin resistance with or without tamoxifen, UM-SCC-10B (clonogenic assay); type: cell-based, human; conditions: for effect on development of cisplatin resistance: tamoxifen present during selection, in words
Method: (§1) The UM-SCC-10B and UM-SCC-5 cell lines were derived from human squamous cell carcinomas of the in head and neck region. Cells were cultured at 37° C. in humidified 5% CO2 in 150 cm^2 flasks (Corning, Corning, N.Y.) with RPMI 1640 medium (Mediatech Inc., Herndon, Va.) containing 10% fetal bovine serum (Gemini Bioproducts Inc., Calabasas, Calif.), 2 mM L-glutamine, 100 units/ml of penicillin and 100 μg/ml of streptomycin sulfate. The sensitivity of the UM-SCC-10B and UM-SCC-5 cell lines and their cDDP-resistant variants to cDDP, TAM and the combination of both agents was tested by colony forming assay. Single-cell suspension were plated into 60 mm tissue culture dishes (Corning) at 300 cells per dish. Following drug exposure, the cultures were washed twice with PBS to remove cDDP, 5 ml of fresh medium was added, and they were incubated for 13-15 days to allow formation of colonies. Colonies were fixed with methanol, stained with Giemsa stain for 60 minutes, and counted manually.
(§2) Cells were cultured in drug-free medium for two weeks prior to being tested for drug sensitivity.

UM-SCC-10B cells = assay: Colony forming assay, parental UM-SCC-10B; type: cell-based, human
Method: (§3) The UM-SCC-10B and UM-SCC-5 cell lines were derived from human squamous cell carcinomas of the in head and neck region. […] The sensitivity of the UM-SCC-10B and UM-SCC-5 cell lines and their cDDP-resistant variants to cDDP, TAM and the combination of both agents was tested by colony forming assay. Single-cell suspension were plated into 60 mm tissue culture dishes (Corning) at 300 cells per dish. […] Colonies were fixed with methanol, stained with Giemsa stain for 60 minutes, and counted manually.
(§4) Median effect analysis was used to assess the interaction between cDDP and TAM using a schedule of one hour exposure to cDDP and continuous exposure to TAM. After seeding the cells into 60 mm tissue culture dishes at 300 cells per dish in fresh medium and allowing 5 hours for them to attach, TAM was added. For the combined treatment, cDDP was added to the dishes 24 hours after seeding the cells. […] After incubation the dishes were washed twice with phosphate-buffered saline and fresh medium containing the appropriate concentration of TAM was added. In synergy experiments, dose-response curves for the single agents were initially generated. The extend of the combined treatment was then analyzed by the isobole method for a combination of cDDP and TAM from the equation

melanoma [2] = assay: Clinical trial: tumor response to DDP alone, then TAM/DDP after DDP resistance; type: in vivo, human (patients)
Text: A complete response was defined as the complete disappearance of all evidence of disease for at least 4 weeks. A partial response was a decrease in the mean diameter of the target lesion by 50% or more lasting at least 4 weeks. A mixed response was a decrease in the diameter of some target lesions of 50% or more while others remained stable or increased in size. A stable disease was defined as a <50% decrease or <25% increase in the size of target lesions for at least 2 months without the growth or appearance of other lesions. A progressive disease was defined as an increase in the size of target lesions by 25% or more.
Patients were retreated every 3 weeks. […] Subsequent patients received an ondansetron-based regimen.

T-289 melanoma cells = assay: Development of DDP resistance with or without TAM, T-289 (colony formation); type: cell-based, human
[3] = tested on: UM-SCC-5 head and neck carcinoma cells; assay: Development of cisplatin resistance with or without tamoxifen, UM-SCC-5 (clonogenic assay); type: cell-based, human
Method: as §1, §2

UM-SCC-5 cells = assay: Colony forming assay, parental UM-SCC-5; type: cell-based, human
Method: as §3, §4

[4] = human, in vivo
Text: (§5) Entry requirements included histologically documented melanoma, measurable disease, signed informed consent, and no anti-tumor therapy during the previous 4 weeks. Patients were required to have normal hematologic and renal function, an ECOG performance status of 0-2 and an estimated survival of at least 3 months. Patients with a previous history of deep venous thrombosis or pulmonary embolism were excluded.
(§6) Pre-treatment hydration consisted of 1 liter of 5% dextrose/0.45%saline containing 20 mEq of potassium chloride and 2 g magnesium sulfate administered over 4 hours. […] Patients were retreated every 3 weeks. On cycles where TAM was administered, 40 mg p.o. four doses per day were given on day 1 followed by 20 mg p.o. daily thereafter. The initial 7 patients were treated with a combination of lorazepam, metaclopramide, benadryl and dexamethasone to control nausea and vomiting. Subsequent patients received an ondansetron-based regimen.

melanoma [5] = conditions: 203 treated melanoma patients; cited from earlier work
[6] = tested on: cell lines of human origin; assay: Synergy of TAM and DDP: timing and mechanism observations; type: cell-based
[7] = Toxicities with DDP or DDP/TAM treatment (clinical trial); conditions: in words
Text: as §5, §6

[8] = Steady-state plasma concentration of TAM; type: in vivo, human (patients); conditions: predicted from in vitro data
Method: The design of the study of Example 1 itself was biased against response and the response rate in other settings would be higher. […] Chronic administration of TAM at 10 mg p.o. twice a day produces steady-state plasma concentrations in the range of 0.29 μM. However, the in vitro data predicts that plasma concentrations of more than 0.5 μM will be necessary in DDP-resistant patients.

[9] = read-out: IC50, one hour exposure to cisplatin
[10] = number of patients, DDP n=24, TAM/DDP n=20
[11] = Homo sapiens, read-out: IC50, continuous tamoxifen exposure

In the case of `N.N.[Cl][Pt][Cl]` [cisplatin, cis-diamminedichloroplatinum (II)], the IC50 ([1]; UM-SCC-10B selected in cisplatin, one hour cisplatin exposure, read-out: IC50 after the fifteenth selection) is reported as 40.1 ± 1.2 µM, the IC50 (UM-SCC-10B cells; [9]) is reported as 6.5 ± 0.6 µM and the “duration of complete response” value (melanoma [2]; DDP alone) is reported as “more than 15 months”. For the same molecule, the “duration of partial response (stable off treatment)” value (melanoma [2]; DDP alone, one patient) was no less than 6 months, the “time to progression of patient with partial response” value (melanoma [2]; DDP alone, the other patient) was 4 months and the “Mixed Response” value (melanoma [2]; number of patients) was 0 patients. For the same molecule, the “Progressive Disease” value (melanoma [2]; number of patients) was 19 patients, the “Stable Disease” value (melanoma [2]; number of patients) was 2 patients and the “Complete Response” value (melanoma [2]; [10]) was 1 patients. The “Partial Response” value (melanoma [2]; [10]) was 2 patients, the “Complete Response” value (melanoma [2]; number of patients, DDP n=24, TAM/DDP n=20, listed as DDP) was “One” and the “Progressive Disease” value (melanoma [2]; number of patients, listed as DDP) was 17 patients. The “Complete Response (%)” value (melanoma [2]; percent of patients) was 4%, the “Partial Response (%)” value (melanoma [2]; percent of patients) was 8% and the “time at which DDP resistance became apparent” value (T-289 melanoma cells; T-289 selection) was 200 days. The IC50 ([3]; UM-SCC-5 selected in cisplatin, one hour cisplatin exposure, read-out: IC50 after the fifteenth selection) was 20.1 ± 1.2 µM and the IC50 (UM-SCC-5 cells; [9]) was 7.2 ± 1.5 µM.

For `Cc1nccn1CC1CCc2c(c3ccccc3n2C)C1=O` (centres unmarked) [ondonsetron, ondansetron], the nausea and vomiting [4] was “markedly reduced nausea and vomiting”.

For `CC/C(=C(\c1ccccc1)c1ccc(OCCN(C)C)cc1)c1ccccc1` [tamoxifen], the “reduction of slope of regression line by tamoxifen” value ([1]; UM-SCC-10B) was “more than 40%”, the “effect on development of cisplatin resistance” value ([1]; UM-SCC-10B) was “delayed the emergence of cisplatin resistance significantly” and the “effect on development of cisplatin resistance” value ([1]; UM-SCC-10B, listed as TAM) was “delay the development of DDP resistance”. The IC50 (UM-SCC-10B cells; [11]) was 3.56 ± 0.41 µM, the “response rate, single agent TAM therapy” value (melanoma [5]) was 6% and the “effect on development of DDP resistance” value (T-289 melanoma cells; T-289, TAM given concurrently, in words) was “delay the development of DDP resistance”. For the same molecule, the “effect on slope for emergence of cisplatin resistance” value ([3]; UM-SCC-5, tamoxifen present during selection, in words) was “no effect”, the “synergy with DDP when TAM is added after DDP” value ([6]; TAM added up to 48 hours after end of 1 hour DDP exposure) was “can produce synergy with DDP” and the “effect of tamoxifen on known mechanisms of cisplatin resistance” value ([6]; drug uptake, glutathione or metallothionein levels, DNA intrastrand adduct formation or repair) was “not due to an effect of tamoxifen on the known mechanisms of cisplatin resistance”. For the same molecule, the nephrotoxicity [7] was “uncommon and unaffected by the administration of TAM”, the “toxicity on addition of TAM to single agent DDP” value [7] was “No increased toxicity” and the nausea and vomiting ([7]; during hospitalization for ondansetron) was “did not increase nausea or vomiting”. For the same molecule, the IC50 (UM-SCC-5 cells; [11]) was 3.22 ± 0.54 µM and the “plasma concentration predicted necessary in DDP-resistant patients” value [8] was “more than 0.5 μM”.
